Reference: patent US12054480B2, “Compounds for treating cannabinoid toxicity and acute cannabinoid overdose” (MAKScientific, LLC, priority 2020, dated 2024)

How the values were obtained:
[1] = cited from earlier work
male CD-1 mice [2] = assay: Observation chamber test - CB1 antagonist mediated side effects; type: in vivo, mouse; conditions: FIG. 1; i.v., 60-minute observation; compared with rimonabant (i.p.)
Method: Observation chambers were used to score (count/duration) individual mouse intrinsic behavior. Male CD-1 mice (n=8) were placed in the chambers for 30 minutes to acclimate to the environment. Subjects were dosed i.v with a compound of Formula I-XI along with vehicle control groups and behavior are recorded over a 60-minute period and the results were analyzed. For statistical analysis, measurements were sampled in 5 min bins at the 5-10, 15-20, 25-30, 35-40, 45-50 and 55-60 min time intervals. The scratching response/frequency is defined based on well-established observations. Data was compared with that of rimonabant (i.p). The vehicle control group (vehicle (i.v.)) were included accordingly.

male CD-1 mice [3] = assay: Reversal of CB1 SPC agonist induced neurotoxicity; type: in vivo, mouse; conditions: FIGS. 2A-2B; induced by suprapharmacological doses of CB1 SPC agonist AM2201; i.v., 30 min observation

Compound	onset ([1]; humans)	time of peak effects ([1]; humans)	apparent plasma elimination half-life ([1]; in some cases)	side effects (scratching episodes) (male CD-1 mice [2])	neurotoxic effects: convulsions (male CD-1 mice [3])	neurotoxic effects: tremors (male CD-1 mice [3])
CCCCCc1cc(O)c2c(c1)OC(C)(C)[C@@H]1CCC(C)=C[C@@H]21 [THC]	30 to 60 min	2 to 4 h	> 96 h	–	–	–
CCOC(=O)c1ccc(-c2c(CC)c(C(=O)NN3CCCCC3)nn2-c2ccc(Cl)cc2Cl)cc1 [Compound 1, Ethyl 4-(1-(2,4-Dichlorophenyl)-4-Ethyl-3-(Piperidin-1-Ylcarbamoyl)-1H-Pyrazol-5-Yl)Benzoate]	–	–	–	lesser side effects (scratching episodes) as compared to rimonabant	blocks	blocks
